# Test results reported in PubChem BioAssay (NCI).
#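 Each compound was tested at five concentrations against cells in 96-well plates for 48 hours. TGI is the concentration that stops growth completely.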
# Assays:
# Assay in all cases: DTP human tumour cell line panel, 48 h
# [1] = system: 786-0 renal
# [2] = system: A498 renal
# [3] = system: A549 NSCLC
# [4] = system: ACHN renal
# [5] = system: BT-549 breast
# [6] = system: CAKI-1 renal
# [7] = system: CCRF-CEM leukemia
# [8] = system: COLO 205 colon
# [9] = system: DU-145 prostate
# [10] = system: EKVX NSCLC
# [11] = system: HCC-2998 colon
# [12] = system: HCT-116 colon
# [13] = system: HCT-15 colon
# [14] = system: HL-60(TB) leukemia
# [15] = system: HOP-62 NSCLC
# [16] = system: HOP-92 NSCLC
# [17] = system: HS 578T breast
# [18] = system: HT29 colon
# [19] = system: IGROV1 ovarian
# [20] = system: K-562 leukemia
# [21] = system: KM12 colon
# [22] = system: LOX IMVI melanoma
# [23] = system: M14 melanoma
# [24] = system: MALME-3M melanoma
# [25] = system: MCF7 breast
# [26] = system: MDA-MB-231 breast
# [27] = system: MDA-MB-435
# [28] = system: MDA-N
# [29] = system: MOLT-4 leukemia
# [30] = system: NCI-H226 lung
# [31] = system: NCI-H23 lung
# [32] = system: NCI-H460 lung
# [33] = system: NCI-H522 lung
# [34] = system: NCI/ADR-RES ovarian
# [35] = system: OVCAR-3 ovarian
# [36] = system: OVCAR-4 ovarian
# [37] = system: OVCAR-5 ovarian
# [38] = system: OVCAR-8 ovarian
# [39] = system: PC-3 prostate
# [40] = system: RPMI-8226 leukemia
# [41] = system: RXF 393 renal
# [42] = system: SF-268 CNS
# [43] = system: SF-295 CNS
# [44] = system: SF-539 CNS
# [45] = system: SK-MEL-2 melanoma
# [46] = system: SK-MEL-28 melanoma
# [47] = system: SK-MEL-5 melanoma
# [48] = system: SK-OV-3 ovarian
# [49] = system: SN12C renal
# [50] = system: SNB-19 CNS
# [51] = system: SNB-75 CNS
# [52] = system: SR leukemia
# [53] = system: SW-620 colon
# [54] = system: T-47D breast
# [55] = system: TK-10 renal
# [56] = system: U251 CNS
# [57] = system: UACC-257 melanoma
# [58] = system: UACC-62 melanoma
# [59] = system: UO-31 renal
structure (smiles),measurement,setting,value
Clc1ccc2c(NCCCCN3OC3c3ccccc3)ccnc2c1 (stereo unspecified),TGI,[1],6.67 µM
same,TGI,[2],12.3 µM
same,TGI,[3],19.2 µM
same,TGI,[4],22.2 µM
same,TGI,[5],27 µM
same,TGI,[6],21.8 µM
same,TGI,[7],8.09 µM
same,TGI,[8],7.12 µM
same,TGI,[9],24.9 µM
same,TGI,[10],38 µM
same,TGI,[11],11.1 µM
same,TGI,[12],4.36 µM
same,TGI,[13],23.5 µM
same,TGI,[14],2.63 µM
same,TGI,[15],10.9 µM
same,TGI,[16],25.8 µM
same,TGI,[17],35.9 µM
same,TGI,[18],10.9 µM
same,TGI,[19],27.7 µM
same,TGI,[20],4.92 µM
same,TGI,[21],22.8 µM
same,TGI,[22],5.67 µM
same,TGI,[23],6.22 µM
same,TGI,[24],16 µM
same,TGI,[25],17.5 µM
same,TGI,[26],5.92 µM
same,TGI,[27],14.5 µM
same,TGI,[28],16.7 µM
same,TGI,[29],9.3 µM
same,TGI,[30],37.6 µM
same,TGI,[31],35.2 µM
same,TGI,[32],21.9 µM
same,TGI,[33],16.4 µM
same,TGI,[34],40.2 µM
same,TGI,[35],9.33 µM
same,TGI,[36],12 µM
same,TGI,[37],29.8 µM
same,TGI,[38],13.1 µM
same,TGI,[39],26.7 µM
same,TGI,[40],5.98 µM
same,TGI,[41],12 µM
same,TGI,[42],27.1 µM
same,TGI,[43],26.1 µM
same,TGI,[44],3.63 µM
same,TGI,[45],11.1 µM
same,TGI,[46],7.42 µM
same,TGI,[47],11.4 µM
same,TGI,[48],34.5 µM
same,TGI,[49],24.7 µM
same,TGI,[50],18.9 µM
same,TGI,[51],11.4 µM
same,TGI,[52],> 100 µM
same,TGI,[53],18.5 µM
same,TGI,[54],16.9 µM
same,TGI,[55],22 µM
same,TGI,[56],9.13 µM
same,TGI,[57],34.5 µM
same,TGI,[58],27.1 µM
same,TGI,[59],28.6 µM
CCCCCCCCC/C=C1/CC(CO)(COC(=O)CC(C(C)C)C(C)C)OC1=O (stereo unspecified),TGI,[1],16.1 µM
same,TGI,[2],12.6 µM
same,TGI,[3],13.9 µM
same,TGI,[4],18.6 µM
same,TGI,[5],27.7 µM
same,TGI,[6],17.4 µM
same,TGI,[7],25 µM
same,TGI,[8],4.64 µM
same,TGI,[9],25.3 µM
same,TGI,[10],20.1 µM
same,TGI,[11],9.86 µM
same,TGI,[12],26.6 µM
same,TGI,[13],29 µM
same,TGI,[14],15.4 µM
same,TGI,[15],17.4 µM
same,TGI,[16],15.8 µM
same,TGI,[17],3.91 µM
same,TGI,[18],29.9 µM
same,TGI,[19],29.1 µM
same,TGI,[20],28.6 µM
same,TGI,[21],23.1 µM
same,TGI,[22],24.7 µM
same,TGI,[23],20.4 µM
same,TGI,[24],14.3 µM
same,TGI,[25],24.4 µM
same,TGI,[26],15.6 µM
same,TGI,[27],19.6 µM
same,TGI,[28],18.3 µM
same,TGI,[29],35.4 µM
same,TGI,[30],21.5 µM
same,TGI,[31],26.9 µM
same,TGI,[32],18.2 µM
same,TGI,[33],23.6 µM
same,TGI,[34],28.1 µM
same,TGI,[35],27.6 µM
same,TGI,[36],28.4 µM
same,TGI,[37],24.6 µM
same,TGI,[38],29.8 µM
same,TGI,[39],21.3 µM
same,TGI,[41],27.8 µM
same,TGI,[42],25 µM
same,TGI,[43],16.2 µM
same,TGI,[44],24.2 µM
same,TGI,[45],29.7 µM
same,TGI,[46],31.8 µM
same,TGI,[47],21.9 µM
same,TGI,[48],31.5 µM
same,TGI,[49],18 µM
same,TGI,[50],23.9 µM
same,TGI,[51],18.9 µM
same,TGI,[52],> 54.2 µM
same,TGI,[53],19 µM
same,TGI,[54],19 µM
same,TGI,[55],15.1 µM
same,TGI,[56],25.6 µM
same,TGI,[57],26 µM
same,TGI,[58],25.6 µM
same,TGI,[59],18.1 µM
C=C1C[C@@H](O)[C@@H](Br)C(C)(C)[C@@]12C=CC(=O)CC2,TGI,[1],> 100 µM
same,TGI,[2],> 100 µM
same,TGI,[3],> 100 µM
same,TGI,[4],> 100 µM
same,TGI,[5],> 100 µM
same,TGI,[6],> 100 µM
same,TGI,[7],> 100 µM
same,TGI,[8],4.34 µM
same,TGI,[9],> 100 µM
same,TGI,[10],> 51.8 µM
same,TGI,[11],> 100 µM
same,TGI,[12],> 100 µM
same,TGI,[13],> 100 µM
same,TGI,[14],> 100 µM
same,TGI,[15],> 100 µM
same,TGI,[16],> 100 µM
same,TGI,[17],> 100 µM
same,TGI,[18],> 100 µM
same,TGI,[19],> 48.3 µM
same,TGI,[20],> 100 µM
same,TGI,[21],5.31 µM
same,TGI,[22],> 100 µM
same,TGI,[23],> 100 µM
same,TGI,[24],> 100 µM
same,TGI,[25],> 100 µM
same,TGI,[26],> 100 µM
same,TGI,[27],> 100 µM
same,TGI,[28],> 100 µM
same,TGI,[29],> 100 µM
same,TGI,[30],> 26.3 µM
same,TGI,[31],> 100 µM
same,TGI,[32],> 100 µM
same,TGI,[33],> 100 µM
same,TGI,[34],> 100 µM
same,TGI,[35],> 100 µM
same,TGI,[36],> 100 µM
same,TGI,[37],13.7 µM
same,TGI,[38],> 100 µM
same,TGI,[39],7.97 µM
same,TGI,[40],> 100 µM
same,TGI,[41],> 100 µM
same,TGI,[42],> 100 µM
same,TGI,[43],> 100 µM
same,TGI,[44],> 100 µM
same,TGI,[45],> 100 µM
same,TGI,[46],> 100 µM
same,TGI,[47],> 100 µM
same,TGI,[48],> 100 µM
same,TGI,[49],> 100 µM
same,TGI,[50],> 100 µM
same,TGI,[51],> 100 µM
same,TGI,[52],> 100 µM
same,TGI,[53],> 100 µM
same,TGI,[54],> 100 µM
same,TGI,[55],> 100 µM
same,TGI,[56],> 100 µM
same,TGI,[57],> 100 µM
same,TGI,[58],> 100 µM
same,TGI,[59],> 100 µM
